Assays:
PSMA-PC3 flu tumors = experiment: In vivo photoacoustic imaging, PSMA-PC3 flu tumors; design: species or system NOD-SCID mice
From the text: To evaluate potential application of the conjugates in photoacoustic imaging, mice used in optical imaging (described in optical imaging section) were imaged using the Nd:YAG OPO laser and Verasonics Vantage 256 ultrasound research platform. […] Under the assumption that different tissue types yield linearly independent PA signal, the two-dimensional (axial and lateral) PA images of the exogeneous imaging agent (conjugate VI) were decomposed from the acquired three-dimensional photoacoustic volume (axial, lateral, and spectral) using non-negative least squares models. The same speed of sound was considered in the beam formation of US and PA imaging. Thus, the two imaging modalities were co-registered by nature. On top of that, image fusion of the two was achieved by using Daubechies 2 wavelet in wavelet transform.
To record background for PA signal mice were imaged before administration of […] and 5, 24, 48, and 72 h after injection (ai). The average PA intensities within the region-of-interest (ROI) of PSMA^+ PC3 normalized with respect to the pre-administration baseline PIP were 25.1±11.0, 30.2±21.1, and 21.8±7.4 at 24, 48 and 72 h ai, respectively. The average PA image intensities within the ROI of PSMA-PC3 flu were 4.2±4.3, 5.9±2.5, 3.8±1.3 (a.u.) at the same time points. […] The normalized PA image intensities of PSMA^+ PC3 PIP tumors were 1.1±0.9, 3.8±4.1, and 1.6±1.4 (a.u.) at 24, 48 and 72 h ai, respectively, and of PSMA-PC3 flu tumors were 2.0±0.9, 3.4±2.4, and 0.9±0.7 (a.u.), respectively.

PSMA+ PC3 PIP tumors = experiment: In vivo photoacoustic imaging, PSMA+ PC3 PIP tumors; design: species or system NOD-SCID mice
[1] = system: PSMA+ PC3 PIP and PSMA-PC3 flu xenografts; experiment: NIR optical imaging, in vivo and ex vivo, of tumor-bearing mice; design: species or system NOD-SCID mice; settings: for preferential accumulation in PSMA+ PC3 PIP tumors vs PSMA-PC3 flu tumors (optical imaging): whole-body NIR imaging, 800 nm channel
[2] = Spectrofluorometric test (fluorescence quenching) of conjugates; settings: excitation 715 nm, emission 750-850 nm; samples with the same amount of Cy7.5 dye; normalized to conjugate I
Description: (§1) All conjugates were formulated into 600 μL sample containing 2.88-nmol Cy7.5 dye. Then, each sample was equally split into three for spectrophotometric, spectrofluorometric, and PA tests, respectively. To obtain the excitation wavelength for fluorescence evaluation as well as estimating the shape of PA spectra, optical absorbance of all conjugates was first tested on a UIV-Vis spectrophotometer. A range from 650 nm to 950 nm (slightly wider than the tunable stable wavelength range on a Nd:YAG OPO laser, i.e., 700 nm to 900 nm) in step of 1 nm was selected. […] Due to the emission limit on the spectrofluorometer (up to 850 nm), the excitation for spectrofluorometry was set at 715 nm, and the emission was set from 750 nm to 850 nm in step of 1 nm. […] Specifically, to avoid the interference of photobleaching wavelengths from 700 nm to 900 nm in step of 10 nm were tested in PA tubing phantom experiment.

[3] = PA tubing phantom experiment; settings: for RPAmax, ratio of maximum PA intensity in NIR range (with respect to I at 770 nm): 700-900 nm in steps of 10 nm; for RPAmax, ratio of maximum PA intensity in NIR range (with respect to I at 770 nm) / RPA780, ratio of photoacoustic intensity at 780 nm (to conjugate I): same amount of Cy7.5 dye; for PB: abbreviation not defined in the footnote
Description: as §1

[4] = Spectrophotometric test (UV-Vis optical absorbance) of conjugates
Description: as §1

PSMA [5] = biological target: T1, PSMA (Homo sapiens, UniProt Q04609); experiment: In vitro binding assay of conjugates with PSMA+ PC3 PIP cells (vs PSMA- PC3 flu cells); design: expressed in transfected cells; host or cells: PSMA+ PC3 PIP (human prostate cancer PC3 subline); PSMA- PC3 flu as negative control; settings: for Kd: PSMA+ PC3 PIP cells, fluorescence intensity vs concentration, read-out: Kd, dissociation constant
Target sequence in this assay (Q04609 whole entry): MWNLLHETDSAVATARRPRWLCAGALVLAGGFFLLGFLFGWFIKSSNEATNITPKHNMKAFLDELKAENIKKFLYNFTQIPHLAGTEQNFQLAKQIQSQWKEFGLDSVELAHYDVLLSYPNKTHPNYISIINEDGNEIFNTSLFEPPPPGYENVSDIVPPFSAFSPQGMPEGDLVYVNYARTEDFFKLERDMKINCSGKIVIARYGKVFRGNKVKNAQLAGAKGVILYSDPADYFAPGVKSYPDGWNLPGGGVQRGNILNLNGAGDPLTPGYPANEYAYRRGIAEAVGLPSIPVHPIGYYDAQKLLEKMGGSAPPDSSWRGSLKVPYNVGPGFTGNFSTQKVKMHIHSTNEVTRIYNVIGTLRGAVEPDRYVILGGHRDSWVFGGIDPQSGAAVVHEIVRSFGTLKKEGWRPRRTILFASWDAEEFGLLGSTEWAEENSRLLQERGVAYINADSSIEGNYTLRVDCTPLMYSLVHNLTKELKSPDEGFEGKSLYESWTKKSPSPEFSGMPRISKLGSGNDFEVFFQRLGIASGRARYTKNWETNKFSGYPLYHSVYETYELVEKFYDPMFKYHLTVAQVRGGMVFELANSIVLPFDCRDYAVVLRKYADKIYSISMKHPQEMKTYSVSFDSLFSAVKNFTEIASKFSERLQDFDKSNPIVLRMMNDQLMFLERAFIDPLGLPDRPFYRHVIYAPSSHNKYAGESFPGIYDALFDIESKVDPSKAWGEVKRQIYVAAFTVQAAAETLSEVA

PSMA [6] = biological target: T1, PSMA; settings: cited from earlier work
Target sequence in this assay (Q04609 whole entry, species assumed): as the sequence (Q04609 whole entry) above

**Q.** For “G4(NH2)13(Cy7.5)6(Bdiol)45 [Conjugate VI]”, which “average PA image intensity within ROI of PSMA-PC3 flu” value (“average PA image intensity within ROI” for short) (PSMA-PC3 flu tumors; 24 h after injection) is on record?
**A.** Its value is 2.0±0.9 a.u.

**Q.** And the “average PA image intensity within ROI” value (PSMA-PC3 flu tumors; 48 h after injection)?
**A.** The value was 3.4±2.4 a.u.

**Q.** And the “average PA image intensity within ROI” value (PSMA-PC3 flu tumors; 72 h after injection)?
**A.** The value was 0.9±0.7 a.u.

**Q.** And the “average PA intensity within ROI of PSMA+ PC3 PIP, normalized to pre-injection baseline” value (PSMA+ PC3 PIP tumors; 24 h after injection)?
**A.** Its value is 1.1±0.9 a.u.

**Q.** And the “average PA intensity within ROI of PSMA+ PC3 PIP, normalized to pre-injection baseline” value (PSMA+ PC3 PIP tumors; 48 h after injection)?
**A.** Its value is 3.8±4.1 a.u.

**Q.** And the “average PA intensity within ROI of PSMA+ PC3 PIP, normalized to pre-injection baseline” value (PSMA+ PC3 PIP tumors; 72 h after injection)?
**A.** Its value is 1.6±1.4 a.u.

**Q.** What about the “preferential accumulation in PSMA+ PC3 PIP tumors vs PSMA-PC3 flu tumors (optical imaging)” value [1] of the same compound?
**A.** Its value is “did not show preferential uptake”.

**Q.** What about the “QR (quenching rate)” value [2] of the same compound?
**A.** Its value is 26.6%.

**Q.** And the “RPAmax, ratio of maximum PA intensity in NIR range (with respect to I at 770 nm)” value (“RPAmax, ratio of maximum PA intensity” below) [3]?
**A.** Its value is 44.6%.

**Q.** And the “RPA780, ratio of photoacoustic intensity at 780 nm (to conjugate I)” value (shortened to “RPA780, ratio of photoacoustic intensity”) [3]?
**A.** The value was 45.4%.

**Q.** Which results are given for “G4(Cy7.5)s(SA-KEU)12(Bdiol)52 [Conjugate V]”?
**A.** absorbance relative to I below 750 nm [4]: up to 1.8 times; Kd (PSMA [5]): 78 nM; QR (quenching rate) [2]: 1.3%; RPAmax, ratio of maximum PA intensity in NIR range (with respect to I at 770 nm) [3]: 111.1%; RPA780, ratio of photoacoustic intensity at 780 nm (to conjugate I) [3]: 97.5%; PB [3]: 0.057 %/sec; ratio of PA intensity to I in 790-900 nm range ([3]; maximum ratio, at 860 nm): ≤ 1257.44%

**Q.** With “G4(Cy7.5)6(SA-KEU)9(Bdiol)53 [Conjugate IV]” as the compound, how does the “average PA image intensity within ROI” value (PSMA-PC3 flu tumors; 24 h after injection) read?
**A.** Its value is 4.2±4.3 a.u.

**Q.** And the “average PA image intensity within ROI” value (PSMA-PC3 flu tumors; 48 h after injection)?
**A.** The value was 5.9±2.5 a.u.

**Q.** And the “average PA image intensity within ROI” value (PSMA-PC3 flu tumors; 72 h after injection)?
**A.** The value was 3.8±1.3 a.u.

**Q.** What about the “uptake by PSMA+ PC3 PIP cells compared to PSMA-PC3 flu cells” value (PSMA [5]) of the same compound?
**A.** Its value is “significantly higher uptake”.

**Q.** And the Kd (PSMA [5])?
**A.** The Kd was 410 nM.

**Q.** And the “specific uptake by PSMA+ PC3 PIP in presence of an excess of ZJ-43” value (PSMA [5]; excess of ZJ-43 (PSMA antagonist))?
**A.** Its value is “inhibited”.

**Q.** What about the “internalization in PSMA+ PC3 PIP cells compared to PSMA-PC3 flu cells” value (PSMA [5]; microscopic evaluation) of the same compound?
**A.** The value was “significantly higher internalization”.

**Q.** And the “average PA intensity within ROI of PSMA+ PC3 PIP, normalized to pre-injection baseline” value (PSMA+ PC3 PIP tumors; 24 h after injection)?
**A.** The value was 25.1±11.0 a.u.

**Q.** What about the “average PA intensity within ROI of PSMA+ PC3 PIP, normalized to pre-injection baseline” value (PSMA+ PC3 PIP tumors; 48 h after injection) of the same compound?
**A.** The value was 30.2±21.1 a.u.

**Q.** And the “average PA intensity within ROI of PSMA+ PC3 PIP, normalized to pre-injection baseline” value (PSMA+ PC3 PIP tumors; 72 h after injection)?
**A.** Its value is 21.8±7.4 a.u.

**Q.** And the “ex vivo fluorescence intensity PSMA+ PC3 PIP/PSMA-PC3 flu ratio” value ([1]; dissected tissues 72 h after injection of 100 μg (3.72 nmol))?
**A.** Its value is 6.2.

**Q.** What about the “preferential accumulation in PSMA+ PC3 PIP tumors vs PSMA-PC3 flu tumors (optical imaging)” value [1] of the same compound?
**A.** The value was “highly specific accumulation”.

**Q.** And the “QR (quenching rate)” value [2]?
**A.** The value was 4.4%.

**Q.** What about the “RPAmax, ratio of maximum PA intensity” value [3] of the same compound?
**A.** Its value is 48.1%.

**Q.** And the “RPA780, ratio of photoacoustic intensity” value [3]?
**A.** The value was 49.0%.

**Q.** And the PB [3]?
**A.** The PB was 0.037 %/sec.

**Q.** For CN1/C(=C/C=C2C=C(/C=C/C3=[N+](CCCCCC(=O)NCCCC[C@H](NC(=O)CCCCCCC(=O)NCCCC[C@H](NC(=O)N[C@@H](CCC(=O)O)C(=O)O)C(=O)O)C(=O)O)c4ccc5c(S(=O)(=O)O)cc(S(=O)(=O)O)cc5c4C3(C)C)CCC/2)C(C)(C)c2c1ccc1c(S(=O)(=O)[O-])cc(S(=O)(=O)O)cc21 [Conjugate I], which “average PA image intensity within ROI” value (PSMA-PC3 flu tumors; 24 h after injection) is on record?
**A.** Its value is 1.9±1.4 a.u.

**Q.** What about the “average PA image intensity within ROI” value (PSMA-PC3 flu tumors; 48 h after injection) of the same compound?
**A.** The value was 19±0.9 a.u.

**Q.** And the “average PA image intensity within ROI” value (PSMA-PC3 flu tumors; 72 h after injection)?
**A.** The value was 2.0±1.1 a.u.

**Q.** And the Kd (PSMA [5])?
**A.** Its Kd is 780 nM.

**Q.** What about the “average PA intensity within ROI of PSMA+ PC3 PIP, normalized to pre-injection baseline” value (PSMA+ PC3 PIP tumors; 24 h after injection) of the same compound?
**A.** Its value is 21.6±16.8 a.u.

**Q.** And the “average PA intensity within ROI of PSMA+ PC3 PIP, normalized to pre-injection baseline” value (PSMA+ PC3 PIP tumors; 48 h after injection)?
**A.** The value was 12.7±5.2 a.u.

**Q.** And the “average PA intensity within ROI of PSMA+ PC3 PIP, normalized to pre-injection baseline” value (PSMA+ PC3 PIP tumors; 72 h after injection)?
**A.** The value was 10.0±4.8 a.u.

**Q.** And the “preferential accumulation in PSMA+ PC3 PIP tumors vs PSMA-PC3 flu tumors (optical imaging)” value [1]?
**A.** Its value is “preferential accumulation”.

**Q.** For “G4(NH2)(Cy7.5)4(SA-KEU)9(Bdiol)30 [Conjugate III]”, which Kd (PSMA [5]) is on record?
**A.** Its Kd is 270 nM.

**Q.** And the “QR (quenching rate)” value [2]?
**A.** The value was 174.9%.

**Q.** And the “RPAmax, ratio of maximum PA intensity” value [3]?
**A.** The value was 20.6%.

**Q.** And the “RPA780, ratio of photoacoustic intensity” value [3]?
**A.** Its value is 20.9%.

**Q.** What about the PB [3] of the same compound?
**A.** Its PB is 0.049 %/sec.

**Q.** With “G4(NH2)20(Cy7.5)2(SA-KEU)10(Bdiol)32 [Conjugate II]” as the compound, how does the Kd (PSMA [5]) read?
**A.** The Kd was 680 nM.

**Q.** What about the “QR (quenching rate)” value [2] of the same compound?
**A.** Its value is 76.4%.

**Q.** And the “RPAmax, ratio of maximum PA intensity” value [3]?
**A.** The value was 30.3%.

**Q.** And the “RPA780, ratio of photoacoustic intensity” value [3]?
**A.** Its value is 30.8%.

**Q.** And the PB [3]?
**A.** The PB was 0.043 %/sec.

**Q.** With NCCCCC(NC(=O)NC(CCC(=O)O)C(=O)O)C(=O)O (stereo not drawn) [KEU, Lys-Glu-urea] as the compound, how does the “affinity to PSMA” value (PSMA [6]) read?
**A.** Its value is “picomolar”.
